Source: patent US20030139373A1, “Method for cancer therapy” (priority 2001, published 2003)

Legend:
[1] = A549 NSCLC xenograft model, toxicity (body weight, deaths); details: single agent
From the text: Female BALB/c nu/nu mice were obtained from Charles River Laboratories (Wilmington, Mass.). The mice were housed in an AALAC approved facility and received standard care in accordance with institutional policy (fully compliant with both NIH and Roche Animal Care and Use Committee guidelines).
Compound II was microprecipitated with an ionic polymer, Eudragit L-100-55, using a solvent extraction method. Eudragit L100-55 (described in USP/NF as “Methacrylic Acid Copolymer”) is an anionic copolymer based on methacrylic acid and ethyl acrylate. The ratio of drug to polymer in the final formulation was 50% w/w Compound II and 50% w/w Eudragit L100-55. For oral administration, the formulated Compound II or pure Eudragit L100-55 (administered to vehicle control groups) was suspended in 0.2% CMC (carboxy-methyl cellulose) solution (Aqualon Hercules, Inc., Parlin, N.J.). The CMC solution was added immediately prior to dosing to animals. Gemzar® (Lilly, Indianapolis, Ind.) was applied to a 40 micron high performance Whatman C-18 column. The column was eluted at 60 ml/min for 50 minutes with water, followed by elution with 40% CH3CN/water until UV clear. The solution was then evaporated and lyophilized.
Weight loss was graphically represented as percent change in mean group body weight, using the formula: […]
where ‘W’ represents mean body weight of the treated group at a particular day, and ‘W0’ represents mean body weight of the same treated group at initiation of treatment.

A549 NSCLC Xenograft = assay: A549 NSCLC xenograft model, efficacy (tumor growth inhibition); assay type: in vivo, mice; details: single agent
From the text: For implantation in mice, A549 cells were dislodged with trypsin-EDTA, washed with 1×D-PBS, and resuspended in serum-free media. […] Tumors were allowed to establish until they were palpable and of an appropriate tumor volume (based on previous tumorigenicity studies) before initiation of treatment. Animals were randomly assigned to groups according to initial tumor volume, and the day of tumor cell inoculation was considered to be study day 0. […] The solution was then evaporated and lyophilized. […] Efficacy data was graphically represented as the mean tumor volume ±standard error of the mean (SEM). Tumor volumes of treated groups were presented as percentages of tumor volumes of the control groups (%T/C), using the formula: 100×((T-T0)/(C-C0)), where 'T' represented mean tumor volume of a treated group on a specific day during the experiment, 'T0' represented mean tumor volume of the same treated group on the first day of treatment; 'C' represented mean tumor volume of a control group on a specific day during the experiment, and C0' represented mean tumor volume of the same […] 'D' represents the large diameter of the tumor, and 'd' represents the small diameter. In some cases, tumor regression and/or percent change in tumor volume was calculated using the formula: Statistical analysis was determined by the rank sum test (SigmaStat, v.2.0, Jandel Scientific, San Francisco, Calif.).

H1299 cells = assay: Tetrazolium dye (MTT) proliferation assay, H1299; assay type: cell-based; details: Homo sapiens, NCI-H1299; MTT assay using H1299 cells
Protocol: H1299 cells were obtained from the National Cancer Institute. A549 cells were purchased from ATCC. The cells were grown in a subconfluent condition to maintain a logarithmic growth phase. The cells were dislodged for passage using trypsin-EDTA (0.05% and 0.53 mM, respectively).
Cellular proliferation was evaluated by the tetrazolium dye assay. Cells from exponentially growing cultures were plated at the appropriate seeding density in the optimal medium to give logarithmic growth over the course of the assay. Plates were incubated overnight at 37° C. in a humidified CO2 atmosphere to allow for recovery from trypsinization before beginning the assay. […] The plates were returned to 37° C. and assayed for proliferation by MTT (3-(4,5-dimethyl-thiazole-2-yl)-2,5-diphenyl-2H-tetrazolium bromide at time points that would allow for at least three population doublings in the untreated control cultures. MTT was added to each well to yield a final concentration of 1 mg/ml and the plates were returned to 37° C. for 2.5 hours. Following incubation, the MTT-containing medium was removed by aspiration and the resulting formazan metabolite was solubilized in 50 μl ethanol. Absorbances were read at a wavelength of 570 nm with a 650 nm reference. Percent inhibition was calculated using the formula: [formula]

With `Cn1cc(C2=C(c3cn(C)c4cc([N+](=O)[O-])ccc34)C(=O)NC2=O)c2ccccc21` [Compound II] as the compound, how does the “Drug Related Deaths” value ([1]; CII 50 mg/kg PO) read?
Its value is 0%.

And the “Drug Related Deaths” value ([1]; CII 100 mg/kg PO)?
The value was 0%.

What about the “Drug Related Deaths” value ([1]; CII 200 mg/kg PO) of the same compound?
The value was 0%.

And the “Tumor Volume (Mean ± SEM) (Day 30)” value (A549 NSCLC Xenograft; CII 50 mg/kg PO)?
Its value is 104 ± 18 mm3.

And the “% T/C (Day 47)” value (A549 NSCLC Xenograft; CII 50 mg/kg PO)?
The value was 50%.

What about the “Tumor Volume (Mean ± SEM) (Day 47)” value (A549 NSCLC Xenograft; CII 50 mg/kg PO) of the same compound?
Its value is 217 ± 32 mm3.

What about the “Tumor Volume (Mean ± SEM) (Day 30)” value (A549 NSCLC Xenograft; CII 100 mg/kg PO) of the same compound?
The value was 148 ± 28 mm3.

And the “% T/C (Day 47)” value (A549 NSCLC Xenograft; CII 100 mg/kg PO)?
Its value is 29%.

And the “Tumor Volume (Mean ± SEM) (Day 47)” value (A549 NSCLC Xenograft; CII 100 mg/kg PO)?
Its value is 213 ± 35 mm3.

What about the “Tumor Volume (Mean ± SEM) (Day 30)” value (A549 NSCLC Xenograft; CII 200 mg/kg PO) of the same compound?
Its value is 99 ± 17 mm3.

What about the “% T/C (Day 47)” value (A549 NSCLC Xenograft; CII 200 mg/kg PO) of the same compound?
Its value is 18%.

And the “Tumor Volume (Mean ± SEM) (Day 47)” value (A549 NSCLC Xenograft; CII 200 mg/kg PO)?
Its value is 141 ± 21 mm3.

For `Nc1ccn([C@@H]2O[C@H](CO)[C@@H](O)C2(F)F)c(=O)n1` [Gemcitabine, gemcitabine], which “Drug Related Deaths” value ([1]; G 30 mg/kg IP) is on record?
The value was 0%.

And the “Drug Related Deaths” value ([1]; G 60 mg/kg IP)?
Its value is 0%.

What about the “Drug Related Deaths” value ([1]; G 120 mg/kg IP) of the same compound?
Its value is 0%.

What about the IC50 (H1299 cells) of the same compound?
The IC50 was 3.8 nM.

And the IC90 (H1299 cells)?
Its IC90 is 6 nM.

And the “Tumor Volume (Mean ± SEM) (Day 30)” value (A549 NSCLC Xenograft; G 30 mg/kg IP)?
Its value is 97 ± 15 mm3.

What about the “% T/C (Day 47)” value (A549 NSCLC Xenograft; G 30 mg/kg IP) of the same compound?
Its value is 72%.

What about the “Tumor Volume (Mean ± SEM) (Day 47)” value (A549 NSCLC Xenograft; G 30 mg/kg IP) of the same compound?
The value was 210 ± 44 mm3.

What about the “Tumor Volume (Mean ± SEM) (Day 30)” value (A549 NSCLC Xenograft; G 60 mg/kg IP) of the same compound?
Its value is 111 ± 17 mm3.

What about the “% T/C (Day 47)” value (A549 NSCLC Xenograft; G 60 mg/kg IP) of the same compound?
Its value is 49%.

What about the “Tumor Volume (Mean ± SEM) (Day 47)” value (A549 NSCLC Xenograft; G 60 mg/kg IP) of the same compound?
The value was 188 ± 27 mm3.

What about the “Tumor Volume (Mean ± SEM) (Day 30)” value (A549 NSCLC Xenograft; G 120 mg/kg IP) of the same compound?
Its value is 98 ± 20 mm3.

What about the “% T/C (Day 47)” value (A549 NSCLC Xenograft; G 120 mg/kg IP) of the same compound?
Its value is 61%.

What about the “Tumor Volume (Mean ± SEM) (Day 47)” value (A549 NSCLC Xenograft; G 120 mg/kg IP) of the same compound?
The value was 193 ± 36 mm3.
